Here are results for 81 compounds from the Kinase Knowledgebase extract (Sharma et al. 2016).

Molecules are shown by their SMILES.

Chain of PIK3CA (human) (P42336 whole entry, looked up): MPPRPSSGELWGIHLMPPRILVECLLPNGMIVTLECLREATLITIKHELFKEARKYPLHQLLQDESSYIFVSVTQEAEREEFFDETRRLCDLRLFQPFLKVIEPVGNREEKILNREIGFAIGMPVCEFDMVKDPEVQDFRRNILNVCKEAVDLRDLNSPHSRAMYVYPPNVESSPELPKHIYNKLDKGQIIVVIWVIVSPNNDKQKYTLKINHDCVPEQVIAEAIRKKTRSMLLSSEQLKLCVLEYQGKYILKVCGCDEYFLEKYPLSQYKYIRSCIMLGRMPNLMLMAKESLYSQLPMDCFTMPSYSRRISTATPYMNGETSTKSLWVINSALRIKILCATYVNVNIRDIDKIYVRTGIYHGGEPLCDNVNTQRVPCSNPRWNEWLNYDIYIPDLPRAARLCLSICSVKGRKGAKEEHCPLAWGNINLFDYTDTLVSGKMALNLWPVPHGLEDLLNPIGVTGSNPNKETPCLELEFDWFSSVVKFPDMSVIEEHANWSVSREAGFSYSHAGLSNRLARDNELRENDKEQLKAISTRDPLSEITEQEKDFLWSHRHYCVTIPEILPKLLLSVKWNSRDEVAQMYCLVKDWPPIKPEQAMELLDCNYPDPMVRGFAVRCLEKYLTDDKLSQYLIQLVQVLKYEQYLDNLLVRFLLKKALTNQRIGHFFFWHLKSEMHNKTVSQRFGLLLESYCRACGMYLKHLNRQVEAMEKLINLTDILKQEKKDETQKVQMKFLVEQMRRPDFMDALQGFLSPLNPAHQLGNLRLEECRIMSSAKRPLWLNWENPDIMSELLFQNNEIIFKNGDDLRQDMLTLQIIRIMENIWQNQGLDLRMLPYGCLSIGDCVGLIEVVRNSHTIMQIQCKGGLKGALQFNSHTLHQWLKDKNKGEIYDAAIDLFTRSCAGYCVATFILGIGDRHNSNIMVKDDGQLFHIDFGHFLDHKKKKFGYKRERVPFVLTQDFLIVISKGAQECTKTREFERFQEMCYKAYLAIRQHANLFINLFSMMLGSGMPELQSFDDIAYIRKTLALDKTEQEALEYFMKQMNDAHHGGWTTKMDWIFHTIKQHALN

The assay addresses PIK3CA (human) (UniProt P42336). Put plainly: Assessment of PIK3CA Kinase Activity.
Regarding `CN(C[C@@H](O)CO)C(=O)c1nc2c(s1)CCOc1cc(-c3cn[nH]c3)ccc1-2`, the concentration for half-maximal inhibition (IC50) (commonly the concentration needed to halve the response being measured) was under 1000 nM.
The value for `O=C(c1nc2c(s1)CCOc1cc(-c3cn[nH]c3)ccc1-2)N1CCN(C(=O)C(F)(F)F)CC1` was under 1000 nM; that for `CC(C)n1ncnc1-c1nc2c(s1)CCOc1ccc(-c3ccc[nH]c3=O)cc1-2` was under 1000 nM.
`Cc1nn(C(C)C)c(=O)n1-c1nc2c(s1)CCOc1cc(-c3cnn(CC(C)(C)O)c3)ccc1-2`: the IC50 is under 1000 nM.
`CC(C)NC(=O)CN1CC(c2ccc3c(c2)OCCc2sc(-c4ncnn4C(C)C)nc2-3)C1` had an IC50 of under 1000 nM.
The figure for `Cc1cncc(-c2ccc3c(c2)-c2nc(-c4ncnn4C(C)C)sc2CCO3)c1` is under 1000 nM; for `CC(C)n1ncnc1-c1nc2c(s1)CCOc1ccc(C3CCN(C(=O)[C@H](C)O)CC3)cc1-2` it is under 1000 nM; for `CC(C)n1ncnc1-c1nc2c(s1)CCOc1cc(-c3ccc(=O)[nH]c3)ccc1-2` it is under 1000 nM.
For the compound `COCCN1CCC(c2ccc3c(c2)OCCc2sc(-c4ncnn4C(C)C)nc2-3)CC1`, the IC50 was under 1000 nM.
The figure for `Cc1ccc(-c2ccc3c(n2)-c2sc(-c4ncnn4-c4ccc(F)cc4F)cc2CCO3)cn1` is under 1000 nM; for `CC(C)n1nc(N)nc1-c1nc2c(s1)CCOc1ccc(F)cc1-2` it is under 1000 nM.
The figure for `CC(C)n1ncnc1-c1nc2c(s1)CCOc1ccc(-c3cccnc3)cc1-2` is under 1000 nM.
The value for `CC(C)N(CCO)C(=O)c1nc2c(s1)CCOc1ccc(-c3ccc(N)nc3)cc1-2` was under 1000 nM.
Turning to `CC(C)n1ncnc1-c1nc2c(s1)CCOc1cc(C3CN(CC(=O)N4CCOCC4)C3)ccc1-2`, the IC50 is under 1000 nM.
The figure for `CC(C)(C(=O)NCCO)n1cc(-c2ccc3c(c2)OCCc2sc(-c4ncnn4CC(F)(F)F)nc2-3)cn1` is under 1000 nM; for `CC(=O)N1CC(n2c(Cl)cnc2-c2nc3c(s2)CCOc2cc(-c4cnn(CC(C)(C)O)c4)ccc2-3)C1` it is under 1000 nM; for `CC(C)n1ncnc1-c1nc2c(s1)CCOc1ccc(-c3cccn(CC(N)=O)c3=O)cc1-2` it is under 1000 nM.
The figure for `Nc1ccc2c(n1)-c1sc(-c3ncnn3-c3ccc(F)cc3F)cc1CCO2` is under 1000 nM.
With `O=S1(=O)CCC(n2cc(-c3ccc4c(c3)OCCc3sc(-c5ncnn5CC(F)(F)F)nc3-4)cn2)C1` (stereo unspecified), the concentration for half-maximal inhibition (IC50) is under 1000 nM.
The value for `O=C(c1nc2c(s1)CCOc1cc(-c3cn[nH]c3)ccc1-2)N1CCN(C(=O)[C@H]2CCCO2)CC1` was under 1000 nM; that for `COc1ncccc1-c1ccc2c(c1)-c1nc(C(=O)N(CCO)C(C)C)sc1CCO2` was under 1000 nM.
Compound `Cc1nc(-c2nc3c(s2)CCOc2cc(C4CN(C(=O)[C@H](C)O)C4)ccc2-3)n(C(C)C)n1` returned an IC50 of under 1000 nM.
Consider `CC(C)n1ncnc1-c1nc2c(s1)CCOc1cc(C3CCN(CCO)CC3)ccc1-2`, for which the IC50 was under 1000 nM.
The value for `CN(C)C(=O)CNc1ccc2c(n1)-c1sc(-c3ncnn3-c3ccc(F)cc3F)cc1CCO2` was under 1000 nM; that for `CC(C)(O)Cn1cc(-c2ccc3c(c2)OCCc2sc(-c4ncnn4CCN4CCOCC4)nc2-3)cn1` was under 1000 nM.
The value for `CC1(C)CCCN(C(=O)c2nc3c(s2)CCOc2cc(-c4cn[nH]c4)ccc2-3)C1` was under 1000 nM.
The value for `CC(C)N(CCO)C(=O)c1nc2c(s1)CCOc1cc(-c3ccc(N4CCOCC4)nc3)ccc1-2` was under 1000 nM; that for `CC(C)n1ncnc1-c1nc2c(s1)CCOc1ccc(-c3cccn(CC(=O)N(C)C)c3=O)cc1-2` was under 1000 nM.
`CN1CCC(CNc2ccc3c(n2)-c2sc(-c4ncnn4-c4ccc(F)cc4F)cc2CCO3)C1` (stereo unspecified) gave an IC50 of under 1000 nM.
The figure for `O=C(c1nc2c(s1)CCOc1cc(-c3cn[nH]c3)ccc1-2)N1CCC[C@@H](O)C1` is under 1000 nM.
The figure for `CC(C)(CN)n1cc(-c2ccc3c(c2)OCCc2sc(-c4ncnn4CC(F)(F)F)nc2-3)cn1` is under 1000 nM; for `NC(=O)Cn1cc(-c2ccc3c(c2)OCCc2sc(-c4ncnn4CC(F)(F)F)nc2-3)cn1` it is under 1000 nM; for `Fc1ccc(-n2ncnc2-c2cc3c(s2)-c2nc(-c4ccc(N5CCCC5)nc4)ccc2OCC3)c(F)c1` it is under 1000 nM.
The figure for `CC(C)n1ncnc1-c1nc2c(s1)CCOc1ccc(C3CN(Cc4ccc(F)cc4F)C3)cc1-2` is under 1000 nM; for `Fc1ccc(-n2ncnc2-c2cc3c(s2)-c2nc(NC4CNC4)ccc2OCC3)c(F)c1` it is under 1000 nM.
As for `Cc1ncccc1-c1ccc2c(c1)-c1nc(-c3ncnn3C(C)C)sc1CCO2`, the IC50 was under 1000 nM.
The value for `CC(C)n1ncnc1-c1nc2c(s1)CCOc1ccc(C3CN(CC(N)=O)C3)cc1-2` was under 1000 nM; that for `CN1CCC(N(C)C(=O)c2nc3c(s2)CCOc2cc(-c4cn[nH]c4)ccc2-3)C1` (stereo unspecified) was under 1000 nM; that for `CCOc1ncccc1-c1ccc2c(c1)-c1nc(-c3ncnn3C(C)C)sc1CCO2` was under 1000 nM.
With `CCNC(=O)NCc1ccc2c(c1)OCCc1sc(-c3nc(C)nn3C(C)C)nc1-2`, the IC50 is under 1000 nM.
The value for `O=C(O)CNc1ccc2c(n1)-c1sc(-c3ncnn3-c3ccc(F)cc3F)cc1CCO2` was under 1000 nM; that for `CC(C)(CO)n1cc(-c2ccc3c(c2)OCCc2sc(-c4ncnn4CC(F)(F)F)nc2-3)cn1` was under 1000 nM; that for `Cc1ccncc1-c1ccc2c(c1)-c1nc(C(=O)N(CCO)C(C)C)sc1CCO2` was under 1000 nM.
In turn, `CC(C)n1ncnc1-c1nc2c(s1)CCOc1cc(C3CCN(S(C)(=O)=O)C3)ccc1-2` (stereo unspecified) registered an IC50 of under 1000 nM.
The value for `COc1ccncc1-c1ccc2c(c1)-c1nc(-c3ncnn3C(C)C)sc1CCO2` was under 1000 nM; that for `CN(CC(=O)N1CCOCC1)C(=O)c1nc2c(s1)CCOc1cc(-c3cn[nH]c3)ccc1-2` was under 1000 nM.
The value for `COc1ccccc1-c1ccc2c(c1)-c1nc(-c3ncnn3C(C)C)sc1CCO2` was under 1000 nM; that for `CN1CCN(C(=O)C2CCN(C(=O)c3nc4c(s3)CCOc3cc(-c5cn[nH]c5)ccc3-4)CC2)CC1` was under 1000 nM.
The figure for `OCCn1cc(-c2ccc3c(c2)OCCc2sc(-c4ncnn4-c4ccc(F)cc4F)nc2-3)cn1` is under 1000 nM.
As for `O=C(c1nc2c(s1)CCOc1cc(-c3cn[nH]c3)ccc1-2)N1CCC(C(=O)N2CCCC2)CC1`, the IC50 is under 1000 nM.
The value for `CC(O)CNc1ccc2c(n1)-c1sc(-c3ncnn3-c3ccc(F)cc3F)cc1CCO2` (stereo unspecified) was under 1000 nM; that for `Cc1nc(-c2nc3c(s2)CCOc2cc(C4CN(CCF)C4)ccc2-3)n(C(C)C)n1` was under 1000 nM; that for `CC(C)(O)Cn1cc(-c2ccc3c(c2)OCCc2sc(-c4nccn4C4COC4)nc2-3)cn1` was under 1000 nM.
`CC1(C)C(=O)NC(=O)N1c1nc2c(s1)CCOc1ccccc1-2` returned an IC50 of under 1000 nM.
For `CC(=O)N1[C@H](C)CN(c2ccc3c(n2)-c2sc(-c4ncnn4-c4ccc(F)cc4F)cc2CCO3)C[C@@H]1C`, the IC50 is under 1000 nM.
The value for `CN(C)C(=O)c1nc2c(s1)CCOc1cc(-c3cn[nH]c3)ccc1-2` was under 1000 nM.
On to `CN(C(=O)c1nc2c(s1)CCOc1cc(-c3cn[nH]c3)ccc1-2)C1CCS(=O)(=O)C1` (stereo unspecified), for which the IC50 is under 1000 nM.
Turning to `CC(C)C(=O)N1CCN(C(=O)c2nc3c(s2)CCOc2cc(-c4cn[nH]c4)ccc2-3)CC1`, the IC50 is under 1000 nM.
The compound `CN1CCN(C(=O)c2ccc(Cl)c(N(C)C(=O)c3cc4c(s3)-c3ccc(C(=O)NCCS(C)(=O)=O)cc3OCC4)c2)CC1` registered an IC50 of under 1000 nM.
In turn, `CCn1ccc(-c2ccc3c(c2)OCCc2sc(-c4ncnn4C(C)C)nc2-3)cc1=O` gave a half-maximal inhibitory concentration (IC50) of under 1000 nM.
In turn, `CC(C)n1ncnc1-c1nc2c(s1)CCOc1cc(C3CN(CCS(C)(=O)=O)C3)ccc1-2` gave an IC50 of under 1000 nM.
The value for `CC(=O)N1CC(Nc2ccc3c(n2)-c2sc(-c4ncnn4-c4ccc(F)cc4F)cc2CCO3)C1` was under 1000 nM; that for `CN1C(=O)N(c2nc3c(s2)CCOc2cc(-c4cnn(CC(C)(C)O)c4)ccc2-3)C(C)(C)C1=O` was under 1000 nM; that for `C[C@H](O)C(=O)N1CCN(c2ccc3c(n2)-c2sc(-c4ncnn4-c4ccc(F)cc4F)cc2CCO3)CC1` was under 1000 nM.
On to `CC(C)n1ncnc1-c1nc2c(s1)CCOc1cc(C3CN(S(=O)(=O)CCO)C3)ccc1-2`, for which the IC50 was under 1000 nM.
Turning to `CC(C)n1ncnc1-c1nc2c(s1)CCOc1cc(C3CN(CCS(=O)(=O)N4CC(F)(F)C4)C3)ccc1-2`, the half-maximal inhibitory concentration (IC50) was under 1000 nM.
The value for `COc1ccc(-c2ccc3c(n2)-c2sc(-c4ncnn4-c4ccc(F)cc4F)cc2CCO3)cn1` was under 1000 nM; that for `Oc1ccc(-c2ccc3c(n2)-c2sc(-c4ncnn4-c4ccc(F)cc4F)cc2CCO3)cn1` was under 1000 nM; that for `CC(C)n1ncnc1-c1nc2c(s1)CCOc1cc(C3CCN(S(C)(=O)=O)CC3)ccc1-2` was under 1000 nM.
The value for `CC(C)n1ncnc1-c1nc2c(s1)CCOc1cc(C3CN(S(=O)(=O)CCN(C)C)C3)ccc1-2` was under 1000 nM; that for `CC(C)n1ncnc1-c1nc2c(s1)CCOc1ccc(-c3ccn(C(C)C)c(=O)c3)cc1-2` was under 1000 nM.
With `CNC(=O)c1ccc2c(c1)OCCc1cc(C(=O)N(C)c3cc(C(=O)N4CC(O)C4)ccc3Cl)sc1-2`, the IC50 was under 1000 nM.
The figure for `CC(=O)N1CC2CC1CN2c1ccc2c(n1)-c1sc(-c3ncnn3-c3ccc(F)cc3F)cc1CCO2` (stereo unspecified) is under 1000 nM; for `CN(C(=O)c1cc2c(s1)-c1ccc(C(=O)NCCS(C)(=O)=O)cc1OCC2)c1cc(C(=O)N2CC(O)C2)ccc1Cl` it is under 1000 nM; for `CN1CCN(c2ccc(-c3ccc4c(n3)-c3sc(-c5ncnn5-c5ccc(F)cc5F)cc3CCO4)cn2)CC1` it is under 1000 nM.
The figure for `Cc1nc(-c2nc3c(s2)CCOc2cc(-c4cnn(C5CN(CC(C)(C)O)C5)c4)ccc2-3)n(C(C)C)n1` is under 1000 nM; for `CC(C)n1cnnc1-c1nc2c(s1)CCOc1cc(CNCC(F)(F)F)ccc1-2` it is under 1000 nM.
The figure for `CC(C)n1ncnc1-c1nc2c(s1)CCOc1cc(C3CCN(CC(=O)N(C)C)CC3)ccc1-2` is under 1000 nM; for `CC(C)(O)Cn1cc(-c2ccc3c(c2)OCCc2sc(-c4nccn4CC(F)(F)F)nc2-3)cn1` it is under 1000 nM.
Turning to `CNC(=O)C(C)(C)N1CC(c2ccc3c(c2)OCCc2sc(-c4ncnn4C(C)C)nc2-3)C1`, the IC50 was under 1000 nM.
The figure for `CCN1[C@H](C)CN(c2ccc3c(n2)-c2sc(-c4ncnn4-c4ccc(F)cc4F)cc2CCO3)C[C@@H]1C` is under 1000 nM.
